Reference: patent US11622964B2, “Method for destroying cellular mechanical homeostasis and promoting regeneration and repair of tissues and organs, and use thereof” (INSTITUTE OF ZOOLOGY, CHINESE ACADEMY OF SCIENCES, priority 2018, dated 2023)

Experiments:
[1] = tested on: CCl4-induced mild hepatic fibrosis; assay: CCl4-induced mild hepatic fibrosis model; assay type: in vivo, mice; conditions: 1 mg or 3 mg per kg per day, intraperitoneal or tail vein injection, 1-2 weeks
Description: The ICR, C57Bl/6 mice used in the experiment are purchased from SPF (Beijing) Biotechnology Co., Ltd., carbon tetrachloride is purchased from Aladdin Reagent (Shanghai) Co., Ltd. (C131583-1L), and corn oil is purchased from Sigma (C8267). 8-week-old female mice are selected and housed in the barrier for one week, they are randomly divided into two groups, and respectively injected with CCl4/corn oil (a volume ratio of 2:5) and corn oil. The dose of CCl4 is 0.5 ml/kg, twice a week for 4 weeks. After 4 weeks, the mice are anesthetized with 5% chloral hydrate, and part of the hepatic lobe is taken out, fixing with 4% paraformaldehyde, dehydrating and immersing in wax, then staining with Sirius Red (YY-R20384-100ML) kit for fibrosis, wherein the collagenous fibers are red, as shown in FIG. 2B. After successful identification of the modeling, the drug administration is performed by intraperitoneal injection or tail vein injection. The small molecule is dissolved in dimethyl sulfoxide at a concentration of 1 mg or 3 mg per kg per day; successfully adding 2-5% DMSO+30% propylene glycol+2% Tween 80+ddH2O, and the control group (“Control”) is abbreviated as “Con” in the figure. […]

[2] = tested on: CCl4-induced chronic severe hepatic fibrosis; assay: CCl4-induced chronic severe hepatic fibrosis model; assay type: in vivo, mice; conditions: 1 mg or 3 mg per kg per day, intraperitoneal or tail vein injection, 6-8 weeks
Description: The ICR, C57Bl/6 mice used in the experiment are purchased from SPF (Beijing) Biotechnology Co., Ltd., carbon tetrachloride is purchased from Aladdin Reagent (Shanghai) Co., Ltd. (C131583-1L), and corn oil is purchased from Sigma (C8267). 8-10 week-old female mice are selected and housed in the barrier for one week, they are randomly divided into two groups, and respectively injected with CCl4/corn oil (a volume ratio of 1:2) and corn oil. The dose of CCl4 is 2 ml/kg, twice a week for […]. After 6 weeks, the mice are anesthetized with 5% chloral hydrate, and part of the hepatic lobe is taken out, fixing with 4% paraformaldehyde, dehydrating and immersing in wax, then staining with Sirius Red (YY-R20384-100ML) kit for fibrosis, wherein the collagenous fibers are red, as shown in FIG. 3B. After successful identification of the modeling, the drug administration is performed by intraperitoneal injection or tail vein injection. […] Further, quantitative PCR is performed to identify the expression of fibrosis-related genes Acta2 (myofibroblast marker), Col1a1 (representing type I collagen), Col1a2 (representing type I collagen), Col6a1 (representing collagen), Col6a2 (representing collagen), and Vim (representing fibroblasts), as shown in FIG. 3E and FIG. 3F (continued). […]

[3] = tested on: mouse adult liver, lung, and heart-derived primary mesenchymal cells (priMCs); assay: TGF-β1-induced transformation of mouse primary mesenchymal cells into myofibroblasts; assay type: cell-based; conditions: 20 μM, 3 ng/ml TGF-β1, 7 days
Text: In this example, cell models for in vitro fibrosis are respectively built to activate mouse hepatic stellate Cells (mHSCs, FIG. 13(B)), mouse embryonic fibroblasts (MEFs FIG. 13(C)), mouse adult liver, lung, and heart-derived primary mesenchymal cells (priMCs, FIG. 13(D)), and human hepatic stellate cells (hLX-2, FIG. 13(E)) into myofibroblasts through the induction of TGF-β1. The specific experimental procedure is as shown in FIG. 9A: a medium containing 10% serum is used for the initial cell culture; after 24 hours the medium is replaced with low serum medium (or pre-starvation treatment for 16 hours) while adding 3 ng/ml TGF-β1 with DMSO or Bleb (20 μM); after 7 days the expression of myofibroblast activation marker protein (Acta2), collagen (Col1a1, Col1a2, Col3a1, and Col1a2), and matrix metalloproteinases and inhibitors (collagenases: MmP8, and MmP13; gelatinases: MmP2, and MmP9; a metalloproteinase inhibitor: Timp1/2/3) are identified.

Cc1ccc2c(c1)C(=O)[C@]1(O)CCN(c3ccccc3)C1=N2 [(−)-blebbistatin]
fibrosis (Sirius red staining) [1]: significantly inhibits | accumulation of collagenous fibers (Sirius red, Col I staining) [2]: inhibits | activation of myofibroblasts [2]: inhibits | TGF-β1 induced transformation into myofibroblasts and extracellular matrix synthesis [3]: significantly inhibits
